Assay results taken from patent US8338475B2, “Anti-proliferative pharmaceutical composition” (BioCis Pharma Oy, priority 2003, dated 2012).
“And” between values parts separate entries of the source, which are not always exact repeats. Equal entries are not always repeated.

Key:
[1] = system: HT-1080 (epithelial fibrosarcoma); assay: Proliferation assay (CellTiter 96), HT-1080 cells; type: cell-based, human; settings: Homo sapiens, pH 6.5, 44 h, cis-UCA 10 mM, CPT 2 μM, 15,000 cells per 100 μl, read-out: Inhibition of proliferation (mean percentage inhibition ± SD compared with untreated control)
From the text: (§1) Transformed tumour cell lines WM 266-4 and A2058 (cutaneous melanoma), HT-1080 (epithelial fibrosarcoma), HeLa (epithelial adenocarcinoma of cervix), HK293 (kidney epithelial cells) and non-transformed cell line HSF (skin fibroblast from a healthy volunteer donor) of human origin have been described earlier (Li et al. 2003). The K562 (chronic myelogenous leukemia) cells were purchased from American Type Culture Collection.
(§2) The cells were maintained in logarithmic growth phase in IMDM medium (Invitrogen, Paisley, UK) supplemented with 10% fetal calf serum and antibiotics in a humidified incubator at +37° C., 5% CO2. The adherent cells lines were harvested for experiments with 0.25% trypsin-EDTA in PBS for 5 min and then resuspended and washed in medium. After counting of viable cells, 15,000 to 75,000 cells were transferred into flat-bottom 96-well cell culture plates in a volume of 100 or 150 μl.
(§3) The proliferation activity of cultured cell lines was quantified in flat-bottom 96-well plates with a modified colorimetric assay based on a tetrazolium derivative (CellTiter 96 Aqueous One Solution Cell Proliferation Assay, Promega). The cells were cultured in the presence of camptothecin and/or cis-UCA for 20 to 92 h, then the proliferation reagent was added for 2 h, and the absorbance at 490 nm was measured in a plate reader. […]

[2] = system: A2058 human cutaneous melanoma tumours; assay: Tumour growth in SCID/SCID mice in vivo; settings: 16-day treatment, 1 μM CPT, pH 6.5
Protocol: All injection solutions were adjusted to pH 6.5. The data points have been normalised to unity tumour size at day 0. Data from five mice in each group is included (mean, SD).
The A2058 human cutaneous melanoma cells were cultured under normal cell culture conditions prior to injection into mice. Two million A2058 cells were injected s.c. into the neck of SCID/SCID mice (Charles River Laboratories, Germany). Tumours were allowed to develop for two weeks to the size of a small pearl before the treatments. The mice were divided into four groups of six animals, each containing three males and three females. Each tumour was first injected 50 μl of one of the test solutions (A: PBS; B: 30 mM cis-UCA; C: 1 μM CPT; D: 30 mM cis-UCA+1 μM CPT) three times a week (Mon-Wed-Fri). After day 7 from the beginning of injections, the injection volume was increased to 150 μl injected into three different sides of the tumour. Tumour length and width were measured with a caliper three times a week before each injection. Tumour planar area was calculated as length×width. The tumour growth inhibition efficiency I of the treatments was calculated according to Equation 1:
[formula] where Sr represents the normalised relative size of the tumour in the control group (A) or any of the treatment groups (T), and d0 to d16 are the (eight) measuring time points during the 16-day treatment period.
(§4) After 16 days from the first injection, all the animals were sacrificed with CO2, and the tumours were collected and fixed in formalin for further studies. In groups A, C, and D, one mouse was sacrificed before the end of the experiment because of poor development of the tumour (no measurable tumour at day 0). One animal in group B was sacrificed prematurely after it had severly scratched the tumour. Data from these animals were not included in the calculation of the tumour size results. All the removed animals were female mice. Immunohistochemical data was obtained also from the removed mice except from group B. The experiments were conducted under a protocol approved by the local ethics committee.

[3] = system: A2058 (cutaneous melanoma); assay: Proliferation assay (CellTiter 96), A2058 cells; type: cell-based, human; settings: Homo sapiens, pH 6.5, 44 h, cis-UCA 10 mM, CPT 2 μM, 15,000 cells per 100 μl, read-out: Inhibition of proliferation (mean percentage inhibition ± SD compared with untreated control)
Protocol: (§5) The cells were cultured in triplicate with or without 2 μM camptothecin (CPT) or 10 mM cis-UCA in a density of 15,000 cells per […]. A, Cells taken from normal pH 7.4 cultures to test conditions at pH 6.5. B, Cells cultured in low pH 6.7 adaptation medium for 3 d, then tested at pH 6.5. C, Cells cultured and tested at pH 7.4.
Proliferation was measured in a 44-h assay at pH 6.5 with 30 μM to 30 mM cis-UCA and 2 μM camptothecin. Both proliferation (A) and calculated percentage inhibition data (B) are presented.
as §1, §2
(§6) The proliferation activity of cultured cell lines was quantified in flat-bottom 96-well plates with a modified colorimetric assay based on a tetrazolium derivative (CellTiter 96 Aqueous One Solution Cell Proliferation Assay, Promega). The cells were cultured in the presence of camptothecin and/or cis-UCA for 20 to 92 h, then the proliferation reagent was added for 2 h, and the absorbance at 490 nm was measured in a plate reader. Blank absorption values in wells containing medium without cells were subtracted before comparison analysis.
(§7) The cell lines were tested in a 44-h culture at pH 6.5 with or without 2 μM camptothecin and 10 mM cis-UCA at 15,000 cells per 100 μl total volume. […] In order to further characterise the effective anti-proliferative concentration range of cis-UCA, proliferation was measured in a 44-h assay at pH 6.5 with cis-UCA concentration ranging from 30 μM to 30 mM.

[4] = system: HK293 (kidney epithelial cells); assay: Proliferation assay (CellTiter 96), HK293 cells; type: cell-based, human; settings: Homo sapiens, Epithelial cell, pH 6.5, 44 h, cis-UCA 10 mM, CPT 2 μM, 15,000 cells per 100 μl, read-out: Inhibition of proliferation (mean percentage inhibition ± SD compared with untreated control)
From the text: as §1, §2, §3

[5] = system: Ki67 (proliferating cells) in A2058 tumours; assay: Immunohistochemistry of tumours, Ki67 staining; type: in vivo, SCID/SCID mice; settings: tumours collected after 16 days; 30 mM cis-UCA, 1 μM CPT intratumoural
From the text: as §4
(§8) Paraffin sections of the tumours were stained with haematoxylin/eosin following standard procedures for an overall picture. Ki67 was stained to detect the amount of proliferating cells. The staining procedure for the Ki67 primary antibody (Dako, Klostrup, Denmark) at 1:50 dilution and secondary antibody (StreptABComplex/HRP Duet Mouse/Rabbit, Dako) at 1:100 dilution followed the instructions provided by the manufacturer. Two sections from each tumour was examined.

[6] = system: HeLa (epithelial adenocarcinoma of cervix); assay: Proliferation assay (CellTiter 96), HeLa cells; type: cell-based, human; settings: Homo sapiens, pH 6.5, 44 h, cis-UCA 10 mM, CPT 2 μM, 15,000 cells per 100 μl, read-out: Inhibition of proliferation (mean percentage inhibition ± SD compared with untreated control)
From the text: as §1, §2, §3

HSF (skin fibroblast) = assay: Proliferation assay (CellTiter 96), HSF cells; type: cell-based, human; settings: Homo sapiens, Skin fibroblast, pH 6.5, 44 h, cis-UCA 10 mM, CPT 2 μM, 15,000 cells per 100 μl, read-out: Inhibition of proliferation (mean percentage inhibition ± SD compared with untreated control)
From the text: as §1, §2, §3

A2058 tumours = assay: Haematoxylin/eosin staining of tumour sections (necrosis); type: in vivo, SCID/SCID mice; settings: tumours collected after 16 days; 30 mM cis-UCA, 1 μM CPT intratumoural
From the text: as §4, §8

cell lines = assay: Proliferation assay, statements on the cell lines as a group; type: cell-based, human; settings: camptothecin 2 μM; 44 h; pH 6.5 or 7.4 (FIG. 1)
Protocol: The cells were cultured for 44 h with or without 2 μM camptothecin (CPT) at pH 6.5 or 7.4 conditions. After a 2-h incubation with the proliferation assay reagent, the absorbance at 490 nm was recorded. Cells were cultured in a density of 15,000 cells (K562, HT-1080, HK293) or 75,000 cells (the other cells) in a volume of 150 μl.
Three cell lines were cultured with cis-UCA and/or 1 μM camptothecin at a density of […] per well (100 μl) for 44 h in pH 6.5 medium. Blank wells with all the cis-UCA concentrations but without cells were included and their absorbance subtracted from those of the corresponding test wells.
as §1, with “The K562 (chronic myelogenous leukemia) cells were purchased from American Type Culture Collection.” left out
as §3

[7] = system: WM 266-4 (cutaneous melanoma); assay: Proliferation assay (CellTiter 96), WM266-4 cells; type: cell-based, human; settings: Homo sapiens, WM 266-4, pH 6.5, 44 h, cis-UCA 10 mM, CPT 2 μM, 15,000 cells per 100 μl, read-out: Inhibition of proliferation (mean percentage inhibition ± SD compared with untreated control)
Protocol: as §5, §1, §2, §6, §7

[8] = system: K562 (chronic myelogenous leukemia); assay: Proliferation assay (CellTiter 96), K562 cells; type: cell-based, human; settings: Homo sapiens, pH 6.5, 44 h, cis-UCA 10 mM, CPT 2 μM, 15,000 cells per 100 μl, read-out: Inhibition of proliferation (mean percentage inhibition ± SD compared with untreated control)
From the text: as §1, §2, §3

[9] = system: human polymorphonuclear neutrophils; settings: extracellular pH range 6.1 to 7.0; patent application US2006035973; cited from earlier work

Row | SMILES | inhibition at 2 µM [1] | mean tumour area relative to the initial size at day 0 ([2]; intratumoural injection three times a week, 30 mM cis-UCA) | Growth suppression, female ([2]; female mice, intratumoural 30 mM cis-UCA) | Growth suppression, male ([2]; male mice, intratumoural 30 mM cis-UCA) | inhibition at 2 µM [3] | inhibition at 2 µM [4] | Ki67+ (number of positive tumours/total analysed) [5] | inhibition at 2 µM [6] | inhibition at 2 µM (HSF (skin fibroblast)) | Necrosis (histological sections with haematoxylin/eosin staining) (A2058 tumours) | anti-proliferative effect in all cell line cultures (cell lines) | inhibition at 2 µM [7] | inhibition at 2 µM [8] | effect on the intracellular pH of neutrophils [9]
1 | CC[C@@]1(O)C(=O)OCc2c1cc1n(c2=O)Cc2cc3ccccc3nc2-1 [CPT, Camptothecin, reference compound] | 71 ± 1.7% | about four | 90.3% | 44.7% | 84 ± 3.3% | 56 ± 1% | three out of six tumours and 3/6 | 78 ± 1.6% | 37 ± 0.4% | Dead cells and large necrotic areas were detected and yes | inhibited the proliferation in all cell line cultures and showed more efficient inhibition at pH 6.5 | 81 ± 1.1% | 77 ± 3.3% | –
2 | O=C(O)C=Cc1c[nH]cn1 [trans-UCA, 3-(1H-imidazol-4-yl)-2-propenoic acid, reference compound] | – | – | – | – | – | – | – | – | – | – | – | – | – | not trans-UCA affected the intracellular pH
